Active and inactive are the calls of the source. The calls are words filed in the database; no cut-off is given here.
Key:
[1] = biological target: T1, Androgen receptor (Homo sapiens, UniProt P10275); assay: Displacement of [3H]DHT from androgen receptor in human MDA-MB-453 cells; type: cell-based
T1 sequence (P10275 whole entry): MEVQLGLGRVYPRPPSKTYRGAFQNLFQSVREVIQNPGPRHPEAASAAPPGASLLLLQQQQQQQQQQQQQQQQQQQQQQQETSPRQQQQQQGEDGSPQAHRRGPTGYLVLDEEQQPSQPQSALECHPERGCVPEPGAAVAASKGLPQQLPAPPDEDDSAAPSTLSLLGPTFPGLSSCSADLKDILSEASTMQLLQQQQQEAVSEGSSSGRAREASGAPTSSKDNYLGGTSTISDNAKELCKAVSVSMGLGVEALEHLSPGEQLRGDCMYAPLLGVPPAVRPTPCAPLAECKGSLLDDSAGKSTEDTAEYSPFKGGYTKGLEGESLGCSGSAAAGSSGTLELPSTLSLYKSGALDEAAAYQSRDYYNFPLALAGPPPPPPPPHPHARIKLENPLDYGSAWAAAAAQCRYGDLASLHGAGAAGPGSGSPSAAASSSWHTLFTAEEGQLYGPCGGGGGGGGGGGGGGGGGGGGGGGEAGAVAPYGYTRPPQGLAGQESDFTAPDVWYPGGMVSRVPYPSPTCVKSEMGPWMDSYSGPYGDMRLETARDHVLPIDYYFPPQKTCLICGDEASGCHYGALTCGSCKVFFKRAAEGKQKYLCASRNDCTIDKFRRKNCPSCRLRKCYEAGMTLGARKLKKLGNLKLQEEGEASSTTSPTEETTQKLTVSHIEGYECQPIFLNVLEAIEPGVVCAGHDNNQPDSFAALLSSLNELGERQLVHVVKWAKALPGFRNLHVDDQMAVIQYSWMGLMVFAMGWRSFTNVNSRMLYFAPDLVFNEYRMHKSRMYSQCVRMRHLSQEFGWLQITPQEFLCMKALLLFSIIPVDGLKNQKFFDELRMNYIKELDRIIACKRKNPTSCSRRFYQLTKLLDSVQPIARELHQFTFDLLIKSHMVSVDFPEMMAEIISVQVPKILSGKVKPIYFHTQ

[2] = biological target: T1, Androgen receptor; assay: Antagonist activity at androgen receptor in human MDA-MB-453 cells assessed as inhibition of testosterone-induced transactivation; type: cell-based
[3] = system: Rattus norvegicus; assay: In vivo antagonist activity at androgen receptor in immature rat prostate weight model assessed as testosterone propionate-induced weight of seminal vesicles over full body weight at 25 mg/kg, po qd administered for 4 days relative to testosterone propionate treated control; type: functional; parameters: scale not given: the % may be the effect or the level left
[4] = system: CWR22-BMSLD1; assay: Antitumor activity against bicalutamide-resistant human CWR22-BMSLD1 cells xenografted in BALB/c athymic mouse assessed as tumor stasis at 150 mg/kg, po qd for 20 days; type: functional, organism-based
[5] = system: Mus musculus; assay: Toxicity in BALB/c athymic mouse xenografted with bicalutamide-resistant human CWR22-BMSLD1 cells at 150 mg/kg, po qd for 20 days; type: organism-based; details: in vivo, 480 h
[6] = Drug metabolism in mouse liver microsomes assessed as oxidative metabolite formation; type: ADME
[7] = Antitumor activity against bicalutamide-resistant human CWR22-BMSLD1 cells xenografted in BALB/c athymic mouse assessed as tumor growth inhibition at 150 mg/kg, po qd for 20 days measured on last day of dosing relative to control; type: functional; details: 480 h, read-out: TGI
[8] = Plasma concentration in immature rat prostate weight model at 25 mg/kg, po qd administered for 4 days measured 2 hrs post last dose on day 4; type: ADME, organism-based
[9] = Plasma concentration in immature rat prostate weight model at 10 mg/kg, po qd administered for 4 days measured 2 hrs post last dose on day 4; type: ADME, organism-based
[10] = system: Rattus norvegicus; assay: In vivo antagonist activity at androgen receptor in immature rat prostate weight model assessed as testosterone propionate-induced weight of seminal vesicles over full body weight at 10 mg/kg, po qd administered for 4 days relative to testosterone propionate treated control; type: functional; parameters: scale not given: the % may be the effect or the level left
[11] = AUC (0 to 24 hrs) in BALB/c athymic mouse xenografted with bicalutamide-resistant human CWR22-BMSLD1 cells at 78 mg/kg, po; type: ADME, organism-based; parameters: time < 24 hr, dose 78 mg/kg, route oral; details: in vivo
[12] = system: Rattus norvegicus; assay: In vivo antagonist activity at androgen receptor in immature rat prostate weight model assessed as testosterone propionate-induced weight of seminal vesicles over full body weight at 15 mg/kg, po qd administered for 4 days relative to testosterone propionate treated control; type: functional; parameters: scale not given: the % may be the effect or the level left
[13] = Plasma concentration in immature rat prostate weight model at 15 mg/kg, po qd administered for 4 days measured 2 hrs post last dose on day 4; type: ADME, organism-based
[14] = Plasma concentration in immature rat prostate weight model at 30 mg/kg, po qd administered for 4 days measured 2 hrs post last dose on day 4; type: ADME, organism-based
[15] = system: Rattus norvegicus; assay: In vivo antagonist activity at androgen receptor in immature rat prostate weight model assessed as testosterone propionate-induced weight of seminal vesicles over full body weight at 30 mg/kg, po qd administered for 4 days relative to testosterone propionate treated control; type: functional; parameters: scale not given: the % may be the effect or the level left

Row | SMILES | Ki [1] [µM] | IC50 [2] [µM] | AUC(0-t) at 24 h [11] [µM·h] | also measured
1 | N#Cc1ccc(N2C[C@@H]3[C@@H]([C@@H]4C=C[C@H]3C4)S2(=O)=O)cc1C(F)(F)F | 0.012 | 0.219 |  | 
2 | C[C@@]12[C@@H]3CC[C@@H](C3O)[C@@H]1CN(c1ccc(C#N)c(C(F)(F)F)c1)S2(=O)=O (stereo in doubt; 15) | 0.106 | 0.444 |  | 
3 | N#Cc1ccc(N2C[C@H]3[C@H]4CC[C@H](C4)[C@H]3S2(=O)=O)cc1C(F)(F)F | 0.003 | 0.13 |  | 
4 | C[C@@]12[C@@H]3C=C[C@@H](C3)[C@@H]1CN(c1ccc(C#N)c(C(F)(F)F)c1)S2(=O)=O | 0.002 | 0.03 |  | Activity [3]: 35%; Activity [4]: Active; Activity [5]: Non-Toxic; Drug metabolism [6]: Metabolite_Detected; inhibition in vivo at 150 mg/kg [7]: 87%; concentration at 2 h [8]: 50 nM
5 | CC(O)(CS(=O)(=O)c1ccc(F)cc1)C(=O)Nc1ccc(C#N)c(C(F)(F)F)c1 (centres undefined) [BICALUTAMIDE] |  |  |  | Activity [5]: Non-Toxic; concentration at 2 h [9]: 9500 nM; Activity [10]: 41%; inhibition in vivo at 150 mg/kg [7]: 39%
6 | CCS(=O)(=O)N[C@@H]1C[C@@]2(C)O[C@]1(C)[C@@H]1C(=O)N(c3ccc(C#N)c(C(F)(F)F)c3)C(=O)[C@@H]12 |  |  |  | concentration at 2 h [9]: 4000 nM; Activity [10]: 26%
7 | CNC(=O)[C@@]12[C@@H](CN(c3ccc(C#N)c(C(F)(F)F)c3)S1(=O)=O)[C@H]1C[C@H](F)[C@@H]2C1 | 0.005 | 0.057 | 0.0031 | Activity [12]: 30%; concentration at 2 h [13]: 2900 nM
8 | C[C@@]12[C@@H]3CC[C@@H](C3O)[C@@H]1CN(c1ccc(C#N)c(C(F)(F)F)c1)S2(=O)=O (stereo in doubt; 17) | 0.048 | 0.327 |  | 
9 | N#Cc1ccc(N2C[C@H]3[C@H]4CC[C@H](C4)[C@@]3(C(N)=O)S2(=O)=O)cc1C(F)(F)F | 0.003 | 0.055 | > 2 | Activity [12]: 55%
10 | C[C@@]12[C@@H](CN(c3ccc(C#N)c(C(F)(F)F)c3)S1(=O)=O)[C@H]1C[C@H](F)[C@@H]2C1 | 0.008 | 0.091 | > 2 | Activity [12]: 65%; concentration at 2 h [13]: 2800 nM
11 | CNC(=O)[C@@]12[C@@H]3CC[C@@H](C3)[C@@H]1CN(c1ccc(C#N)c(C(F)(F)F)c1)S2(=O)=O | 0.003 | 0.044 | > 2 | Activity [12]: 51%; concentration at 2 h [13]: 7250 nM
12 | C[C@@]12[C@@H](CN(c3ccc(C#N)c(C(F)(F)F)c3)S1(=O)=O)[C@H]1C[C@H](O)[C@@H]2C1 | 0.003 | 0.106 | > 2 | concentration at 2 h [14]: 790 nM; Activity [15]: 60%
13 | C[C@@]12[C@@H]3CC[C@@H](C3)[C@@H]1CN(c1ccc(C#N)c(C(F)(F)F)c1)S2(=O)=O | 0.003 | 0.073 |  | 
14 | C[C@@]12[C@@H]3CC[C@@H](C3=O)[C@@H]1CN(c1ccc(C#N)c(C(F)(F)F)c1)S2(=O)=O | 0.008 | 0.067 |  | 
15 | C[C@@]12[C@H]3C[C@H]([C@H](O)C3)[C@@H]1CN(c1ccc(C#N)c(C(F)(F)F)c1)S2(=O)=O | 0.028 | 0.43 | > 2 | Activity [15]: 58%
